Data published in patent US11254696B2, “Dianilinopyrimidine compound for inhibiting kinase activity” (Shenzhen Targetrx, Inc., priority 2017, dated 2022).

Legend:
[1] = test system: BaF3 parental; assay: Cytotoxicity test (CellTiter-Glo), BaF3 parental; format: cell-based; conditions: Mus musculus, 72 hours, read-out: IC50(nM) parental (Ba/F3)
Method: (§1) The in vitro anti-proliferative activity of the compounds of the present disclosure against three types of cells that are cultured in vitro was tested by CellTiter-Glo method.
(§2) Cell lines: BaF3 parental; BaF3 [EML4-ALK] (From WuXi PharmaTech) and BaF3 [EMF4-AFK F1196M] (From WuXi PharmaTech); wherein, BaF3 parental was cultured in RPMI1640 medium containing 10 ng/ml IL-3, 10% fetal bovine serum, 100 U/ml penicillin, and 100 μg/ml streptomycin, BaF3 [EMF4-AFK] and BaF3 [EMF4-AFK F1196M] were cultured in RPMI1640 medium containing 10% fetal bovine serum, 100 U/ml penicillin, and 100 μg/ml streptomycin.
(§3) Reagents and materials: RPMI-1640 (GIBCO, Cat. No. A10491-01); fetal bovine serum (GIBCO, Cat. No. 10099141); 0.25% trypsin-EDTA (GIBCO, Cat. No. 25200); penicillin-streptomycin, liquid (GIBCO, Cat. No. 15140-122); DMSO (Sigma, Cat. No. D2650); CellTiter-Glo Test Kit (Promega, Cat. No. G7572), and 96-well plate (Corning, Cat. No. 3365).
(§4) 1. The test compounds were dissolved in DMSO to make stock solutions and subjected to a series gradient dilution to give solutions with 10-fold working concentration.
(§5) 2. The cells in the logarithmic growth phase were diluted with the culture solution to adjust to the specific cell concentration, 90 μi of cell suspension was added to the 96-well plate to make the cell density reach the specified concentration. The plate was incubated in a incubator at 37° C., containing 5% carbon dioxide gas overnight.
(§6) 3. 10 μl drug solutions were added to each well of the 96-well plate inoculated with cells. 10 concentrations of the compounds were tested starting from the highest concentration of 20 μM with a 3-fold series gradient dilution in duplicate.
(§7) 4. After continuously cultured for 72 hours, the cells were detected by CellTiter-Glo for the cell viability. The dose-effect curve was made using GraphPad Prism software and IC50 was calculated.

[2] = test system: BaF3 [EML4-ALK]; assay: Cytotoxicity test (CellTiter-Glo), BaF3 [EML4-ALK]; format: cell-based; conditions: Ba/F3 cells
Method: as §1, §2, §3, §4, §5, §6, §7

[3] = biological target: T1, BaF3 [EML4-ALK] (Homo sapiens, UniProt Q9UM73); assay: Cytotoxicity test (CellTiter-Glo), BaF3 [EML4-ALK]; format: cell-based; conditions: 72 hours, CellTiter-Glo; read-out: IC50(nM) ALK (Ba/F3)
T1 construct: IC50(nM) ALK (Ba/F3); other: 72 hours, CellTiter-Glo; BaF3 [EML4-ALK]; fused on or other part: Q9HC35 (Echinoderm microtubule-associated protein-like 4)
T1 sequence (Q9UM73 whole entry, change not shown, the tested form may be a part): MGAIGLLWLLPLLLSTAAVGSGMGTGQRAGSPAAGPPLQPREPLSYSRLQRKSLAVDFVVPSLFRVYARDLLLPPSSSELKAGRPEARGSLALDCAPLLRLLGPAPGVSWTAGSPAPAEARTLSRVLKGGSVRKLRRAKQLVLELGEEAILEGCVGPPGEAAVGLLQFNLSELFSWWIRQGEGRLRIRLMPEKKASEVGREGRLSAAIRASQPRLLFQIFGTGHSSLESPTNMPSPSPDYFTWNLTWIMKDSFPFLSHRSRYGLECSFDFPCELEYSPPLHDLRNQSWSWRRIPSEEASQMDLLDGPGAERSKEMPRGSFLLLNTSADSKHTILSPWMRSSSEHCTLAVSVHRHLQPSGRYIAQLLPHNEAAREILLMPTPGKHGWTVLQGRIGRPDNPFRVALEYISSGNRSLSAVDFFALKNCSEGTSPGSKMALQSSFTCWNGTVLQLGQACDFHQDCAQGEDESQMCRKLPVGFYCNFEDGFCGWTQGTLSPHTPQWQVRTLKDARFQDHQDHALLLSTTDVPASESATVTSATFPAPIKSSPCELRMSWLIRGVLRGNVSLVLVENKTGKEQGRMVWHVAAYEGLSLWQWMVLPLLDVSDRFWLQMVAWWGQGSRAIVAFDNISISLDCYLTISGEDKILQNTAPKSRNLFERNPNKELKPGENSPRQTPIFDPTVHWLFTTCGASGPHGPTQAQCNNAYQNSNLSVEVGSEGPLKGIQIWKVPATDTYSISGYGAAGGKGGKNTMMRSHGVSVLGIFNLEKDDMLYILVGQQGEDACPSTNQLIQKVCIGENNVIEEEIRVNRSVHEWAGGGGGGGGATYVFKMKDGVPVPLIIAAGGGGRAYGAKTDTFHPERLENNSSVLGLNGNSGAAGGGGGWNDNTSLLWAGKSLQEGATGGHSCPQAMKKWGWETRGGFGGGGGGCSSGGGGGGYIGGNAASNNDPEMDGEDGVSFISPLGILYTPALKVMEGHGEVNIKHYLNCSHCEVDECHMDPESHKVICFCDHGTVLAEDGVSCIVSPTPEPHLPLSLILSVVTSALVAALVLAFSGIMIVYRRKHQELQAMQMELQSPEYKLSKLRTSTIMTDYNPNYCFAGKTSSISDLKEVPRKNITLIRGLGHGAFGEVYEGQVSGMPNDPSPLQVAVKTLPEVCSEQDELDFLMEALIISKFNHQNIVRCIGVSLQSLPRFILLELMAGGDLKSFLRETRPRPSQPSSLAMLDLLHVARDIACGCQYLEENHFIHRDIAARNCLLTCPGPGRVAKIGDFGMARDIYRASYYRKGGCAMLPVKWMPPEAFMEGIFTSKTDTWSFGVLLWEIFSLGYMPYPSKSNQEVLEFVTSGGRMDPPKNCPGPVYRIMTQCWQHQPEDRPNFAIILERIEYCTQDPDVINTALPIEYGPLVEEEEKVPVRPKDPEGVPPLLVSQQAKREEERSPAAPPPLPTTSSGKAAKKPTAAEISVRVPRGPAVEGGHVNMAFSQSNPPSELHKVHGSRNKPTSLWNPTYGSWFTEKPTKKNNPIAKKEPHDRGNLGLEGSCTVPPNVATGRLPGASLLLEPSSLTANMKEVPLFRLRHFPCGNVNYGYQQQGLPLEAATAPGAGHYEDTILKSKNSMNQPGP
Method: as §1, §2, §3, §4, §5, §6, §7

[4] = Metabolic stability in rat liver microsomes; format: in vitro ADME; conditions: SD, pH 7.4, 1 μM compound, 0.5 mg/mL protein; for microsomal CLint at 1 μM: read-out: CLint (uL/min/mg), Rat liver microsome experiment; for half-life at 1 μM: read-out: t1/2 (min), Rat liver microsome experiment
Method: (§8) Experiments in microsomes: Human liver microsomes: 0.5 mg/mL, Xenotech; Rat liver microsomes: 0.5 mg/mL, Xenotech; Coenzyme (NADPH/NADH): 1 mM, Sigma Life Science; Magnesium chloride: 5 mM, 100 mM phosphate buffer (pH 7.4).
(§9) Preparation of stock solution: Powder of the example compounds was accurately weighed and dissolved in DMSO to 5 mM. Preparation of phosphate buffer (100 mM, pH7.4): A pre-formulated 0.5M potassium dihydrogen phosphate (150 mL) was mixed with 0.5M dibasic potassium phosphate (700 mL). The pH of the mixture was adjusted to 7.4 with 0.5M dibasic potassium phosphate solution. The mixture was diluted 5-fold with ultrapure water before use, and magnesium chloride was added to obtain a phosphate buffer (100 mM) containing 100 mM potassium phosphate, 3.3 mM magnesium chloride, pH7.4. A NADPH regeneration system solution (containing 6.5 mM NADP, 16.5 mM G-6-P, 3 U/mL G-6-PD, 3.3 mM magnesium chloride) was prepared and placed on wet ice prior to use. Preparation of stop solution: acetonitrile solution containing 50 ng/mL propranolol hydrochloride and 200 ng/mL tolbutamide (internal standard). 25057.5 μL of phosphate buffer (pH 7.4) was taken into a 50 mL centrifuge tube, to which 812.5 μL human liver microsomes were added, and mixed to obtain a liver microsome dilution solution with a protein concentration of 0.625 mg/mL. 25057.5 μL of phosphate buffer (pH 7.4) was taken into a 50 mL centrifuge tube, to which 812.5 μL SD rat liver microsomes were added, and mixed to obtain a liver microsome dilution solution with a protein concentration of 0.625 mg/mL.
(§10) Incubation of the samples: The stock solution of the respective compound was respectively diluted to 0.25 mM with an aqueous solution containing 70% acetonitrile, and used as a working solution, ready for use. 398 μL of the dilution solution of human liver microsomes or rat liver microsome were added to a 96-well incubation plate (N=2), respectively, and 2 μL of 0.25 mM working solution was added and mixed.
(§11) Metabolic stability assay: 300 μL of pre-chilled stop solution was added to each well of a 96-well deep well plate and placed on ice as a stop plate. The 96 well incubation plate and NADPH regeneration system were placed in a 37° C. water bath box, shaken at 100 rpm and pre-incubated for 5 min. 80 μL of incubation solution was taken out from each well of the incubation plate and added to the stop plate, mixed, and replenished with 20 μL of NADPH regeneration system solution as a 0-min sample. 80 μL of NADPH regeneration system solution was added to each well of the incubation plate to start the reaction and start counting. […] Separately, 100 μL of the reaction solution was taken at 10, 30, and 90 min reaction, respectively, added to a stop plate, and vortexed for 3 minutes to terminate the reaction. The stop plate was centrifuged at 5000×g at 4° C. for 4 min. 100 μL of the supernatant was added to a 96-well plate to which 100 μL of distilled water was previously added, mixed, and analyzed by LC-MS/MS.
(§12) Data analysis: The peak areas of the corresponding compound and internal standard were detected by LC-MS/MS system, and the ratio of the peak area of the compound to the internal standard was calculated.

[5] = biological target: ALK [WT] (Homo sapiens, UniProt Q9UM73); assay: Kinase inhibition assay, ALK [WT]; format: biochemical
ALK [WT], sequence (Q9UM73 19-1620): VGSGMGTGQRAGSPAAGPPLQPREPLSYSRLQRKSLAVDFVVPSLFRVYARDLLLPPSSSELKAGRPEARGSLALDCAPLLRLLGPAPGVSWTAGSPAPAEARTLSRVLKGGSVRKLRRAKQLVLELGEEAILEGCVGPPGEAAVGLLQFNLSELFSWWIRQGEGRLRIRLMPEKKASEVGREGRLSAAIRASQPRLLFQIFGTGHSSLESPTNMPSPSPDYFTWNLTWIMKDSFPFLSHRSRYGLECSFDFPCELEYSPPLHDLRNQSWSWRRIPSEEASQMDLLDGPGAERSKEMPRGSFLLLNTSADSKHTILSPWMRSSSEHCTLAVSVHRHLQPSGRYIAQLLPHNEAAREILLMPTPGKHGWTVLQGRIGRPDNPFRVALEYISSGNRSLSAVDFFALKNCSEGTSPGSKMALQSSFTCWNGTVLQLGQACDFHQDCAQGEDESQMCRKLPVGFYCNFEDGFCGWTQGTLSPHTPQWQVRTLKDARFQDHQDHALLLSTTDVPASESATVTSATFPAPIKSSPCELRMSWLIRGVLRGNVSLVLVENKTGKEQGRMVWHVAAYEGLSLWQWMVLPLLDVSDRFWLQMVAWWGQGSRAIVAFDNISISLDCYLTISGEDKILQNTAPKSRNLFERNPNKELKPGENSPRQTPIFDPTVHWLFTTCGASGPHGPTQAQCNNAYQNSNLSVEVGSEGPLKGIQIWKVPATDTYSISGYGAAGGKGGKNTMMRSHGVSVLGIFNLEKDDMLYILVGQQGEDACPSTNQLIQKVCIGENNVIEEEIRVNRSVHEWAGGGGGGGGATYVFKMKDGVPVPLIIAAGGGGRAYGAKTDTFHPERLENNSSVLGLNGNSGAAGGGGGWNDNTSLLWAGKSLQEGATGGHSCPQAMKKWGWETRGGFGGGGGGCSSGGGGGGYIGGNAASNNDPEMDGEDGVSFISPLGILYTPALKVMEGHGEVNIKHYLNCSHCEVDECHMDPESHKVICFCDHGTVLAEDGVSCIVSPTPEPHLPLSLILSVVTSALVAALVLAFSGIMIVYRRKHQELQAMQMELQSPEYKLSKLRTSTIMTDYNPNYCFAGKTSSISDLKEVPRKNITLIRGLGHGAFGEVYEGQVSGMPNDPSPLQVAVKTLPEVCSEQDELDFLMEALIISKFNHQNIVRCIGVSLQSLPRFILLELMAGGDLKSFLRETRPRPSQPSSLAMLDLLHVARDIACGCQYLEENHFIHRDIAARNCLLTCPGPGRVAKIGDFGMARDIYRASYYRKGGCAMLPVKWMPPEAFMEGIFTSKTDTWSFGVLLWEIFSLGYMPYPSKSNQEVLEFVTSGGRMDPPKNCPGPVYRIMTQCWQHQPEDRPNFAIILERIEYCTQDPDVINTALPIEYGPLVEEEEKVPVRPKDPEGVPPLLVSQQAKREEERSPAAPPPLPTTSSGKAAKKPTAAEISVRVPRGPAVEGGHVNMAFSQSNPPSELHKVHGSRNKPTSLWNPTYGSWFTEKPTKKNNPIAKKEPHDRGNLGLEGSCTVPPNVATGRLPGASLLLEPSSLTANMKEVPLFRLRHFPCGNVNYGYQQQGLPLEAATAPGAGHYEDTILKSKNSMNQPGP
Method: (§13) Compound preparation: The test compounds were dissolved in DMSO to make 20 mM stock solutions. The compounds were diluted in DMSO to 0.1 mM (a dilution with 100 times the final concentration) before use, and a 3-fold series gradient dilution with 11 concentrations was made. Dilutions with 4 times of the final concentration were prepared by diluting with buffer when dosing.
(§14) Kinase assay: after preparing the buffer solution, the enzyme was mixed with pre-diluted compounds with different concentrations, and placed at room temperature for 30 minutes in duplicate. The corresponding substrate and ATP were added thereto and reacted at room temperature for 60 minutes (both a negative and a positive control were set). After the reaction, antibody was added for detection, and after incubation at room temperature for 60 minutes, Evnvision detection was carried out, and data was collected. Data was analyzed and fit according to XLfit5 software. IC50 was calculated by the following formula: (IC50=[(ABS test−ABS begin)/(ABS control−ABS begin)]×100).

[6] = biological target: T2, ALK[L1196M] (Ba/F3) (Homo sapiens, UniProt Q9UM73, L1196M, cells depend on it); assay: Cytotoxicity test (CellTiter-Glo), BaF3 EML4-ALK L1196M; format: cell-based; conditions: 72 hours, CellTiter-Glo; read-out: IC50(nM) ALK[L1196M] (Ba/F3)
T2 construct: IC50(nM) ALK[L1196M]; (Ba/F3); other: 72 hours, CellTiter-Glo; BaF3 [EMF4-AFK F1196M]; fused on or other part: Q9HC35 (Echinoderm microtubule-associated protein-like 4)
T2 sequence (Q9UM73 whole entry L1196M, the tested form may be a part): as the sequence (Q9UM73 whole entry, change not shown, the tested form may be a part) above, with L1196M counted along it
Method: as §1, §2, §3, §4, §5, §6, §7

[7] = test system: ALK[L1196M] (Ba/F3); assay: as above; format: cell-based; conditions: Ba/F3 cells
Method: as §1, §2, §3, §4, §5, §6, §7

[8] = Metabolic stability in human liver microsomes; format: in vitro ADME; conditions: pH 7.4, 1 μM compound, 0.5 mg/mL protein; for microsomal CLint at 1 μM: read-out: CLint (uL/min/mg), Human liver microsome experiment; for half-life at 1 μM: read-out: t1/2 (min), Human liver microsome experiment
Method: as §8, §9, §10, §11, §12

[9] = biological target: ALK [L1196M] (Homo sapiens, UniProt Q9UM73, L1196M); assay: Kinase inhibition assay, ALK [L1196M]; format: biochemical
ALK [L1196M], sequence (Q9UM73 19-1620 L1196M): as the sequence (Q9UM73 19-1620) above, with L1178M counted along it
Method: as §13, §14

COc1cc(C(C)N)ccc1Nc1ncc(Cl)c(Nc2ccccc2P(C)(C)=O)n1 (stereo not drawn) [Example 7, (2-((2-((4-(1-aminoethyl)-2-methoxyphenyl)amino)-5-chloropyrimidin-4-yl)amino)phenyl)dimethylphosphine oxide]
IC50 [1]: ≥ 1000 nM | Selectivity parental/ALK [2]: <50 | GI50 [3]: 50 to 100 nM | microsomal CLint at 1 μM [4]: 4.1 µL/min/mg | half-life at 1 μM [4]: 340 min | IC50 [5]: 2 to 5 nM | GI50 [6]: 200 to 1000 nM | Selectivity parental/ALK[L1196M] [7]: <50 | microsomal CLint at 1 μM [8]: 5.7 µL/min/mg | half-life at 1 μM [8]: 244 min | IC50 [9]: 2 to 5 nM

COc1cc(C(C)N(C)C)ccc1Nc1ncc(Cl)c(Nc2ccccc2P(C)(C)=O)n1 (stereo not drawn) [Example 8, (2-((5-chloro-2-((4-(1-(dimethylamino)ethyl)-2-methoxyphenyl)amino)pyrimidin-4-yl)amino)phenyl)dimethylphosphine oxide]
IC50 [1]: ≥ 1000 nM | Selectivity parental/ALK [2]: 100 to 200 | GI50 [3]: 25 to 50 nM | microsomal CLint at 1 μM [4]: 28.8 µL/min/mg | half-life at 1 μM [4]: 48.2 min | IC50 [5]: 2 to 5 nM | GI50 [6]: 100 to 200 nM | Selectivity parental/ALK[L1196M] [7]: <50 | microsomal CLint at 1 μM [8]: 24.6 µL/min/mg | half-life at 1 μM [8]: 56.3 min | IC50 [9]: 2 to 5 nM

CNC(C)c1ccc(Nc2ncc(Cl)c(Nc3ccccc3P(C)(C)=O)n2)c(OC)c1 (stereo not drawn) [Example 9, (2-((5-chloro-2-((4-(1-(methylamino)ethyl)-2-methoxyphenyl)amino)pyrimidin-4-yl)amino)phenyl)dimethylphosphine oxide]
IC50 [1]: ≥ 1000 nM | Selectivity parental/ALK [2]: 50 to 100 | GI50 [3]: 50 to 100 nM | microsomal CLint at 1 μM [4]: 9.9 µL/min/mg | half-life at 1 μM [4]: 140 min | IC50 [5]: 2 to 5 nM | GI50 [6]: 200 to 1000 nM | Selectivity parental/ALK[L1196M] [7]: <50 | microsomal CLint at 1 μM [8]: 11.3 µL/min/mg | half-life at 1 μM [8]: 123 min | IC50 [9]: 2 to 5 nM

COc1cc(C(C)(C)CN)ccc1Nc1ncc(Cl)c(Nc2ccccc2P(C)(C)=O)n1 [Example 10, (2-((2-((4-(1-amino-2-methylpropan-2-yl)-2-methoxyphenyl)amino)-5-chloropyrimidin-4-yl)amino)phenyl)dimethylphosphine oxide]
IC50 [1]: ≥ 1000 nM | Selectivity parental/ALK [2]: 100 to 200 | GI50 [3]: 25 to 50 nM | microsomal CLint at 1 μM [4]: 15.1 µL/min/mg | half-life at 1 μM [4]: 92 min | IC50 [5]: 2 to 5 nM | GI50 [6]: 100 to 200 nM | Selectivity parental/ALK[L1196M] [7]: <50 | microsomal CLint at 1 μM [8]: 25.2 µL/min/mg | half-life at 1 μM [8]: 55 min | IC50 [9]: 2 to 5 nM

CNCC(C)(C)c1ccc(Nc2ncc(Cl)c(Nc3ccccc3P(C)(C)=O)n2)c(OC)c1 [Example 11, (2-((5-chloro-2-((2-methoxy-4-(2-methyl-1-(methylamino)propan-2-yl)phenyl)amino)pyrimidin-4-yl)amino)phenyl)dimethylphosphine oxide]
IC50 [1]: ≥ 1000 nM | Selectivity parental/ALK [2]: 100 to 200 | GI50 [3]: 25 to 50 nM | microsomal CLint at 1 μM [4]: 7.2 µL/min/mg | half-life at 1 μM [4]: 194 min | IC50 [5]: 2 to 5 nM | GI50 [6]: 50 to 100 nM | Selectivity parental/ALK[L1196M] [7]: 50 to 100 | microsomal CLint at 1 μM [8]: 23.8 µL/min/mg | half-life at 1 μM [8]: 58.2 min | IC50 [9]: 5 to 10 nM

COc1cc(C(C)(C)CN(C)C)ccc1Nc1ncc(Cl)c(Nc2ccccc2P(C)(C)=O)n1 [Example 12, (2-((5-chloro-2-((4-(1-(dimethylamino)-2-methylpropan-2-yl)-2-methoxyphenyl)amino)pyrimidin-4-yl)amino)phenyl)dimethylphosphine oxide]
IC50 [1]: ≥ 1000 nM | Selectivity parental/ALK [2]: 100 to 200 | GI50 [3]: 25 to 50 nM | microsomal CLint at 1 μM [4]: 86.8 µL/min/mg | half-life at 1 μM [4]: 16 min | IC50 [5]: 2 to 5 nM | GI50 [6]: 50 to 100 nM | Selectivity parental/ALK[L1196M] [7]: <50 | microsomal CLint at 1 μM [8]: 73.5 µL/min/mg | half-life at 1 μM [8]: 18.9 min | IC50 [9]: 5 to 10 nM
